Reference: patent US8329904B2, “Azacyclic derivatives” (Hoffmann-La Roche Inc., priority 2009, dated 2012)

biological target: T1, human HSL (Homo sapiens, UniProt Q05469); assay: Human Hormone-Sensitive Lipase (HSL) Enzyme Inhibition Assay; format: biochemical; details: colorimetric assay, 2,3-dimercapto-1-propanol tributyrate (DMPT) substrate, 37° C. for 20 minutes, absorbance at 405 nm; read-out: HSL hum IC50
T1 construct: overlapping PCR to generate a full length human HSL ORF with a 3′-His6 tag; His6 (C); made in house; host or cells: High 5 insect cells (baculovirus, pFast-BAC)
T1 sequence (Q05469 1-1076): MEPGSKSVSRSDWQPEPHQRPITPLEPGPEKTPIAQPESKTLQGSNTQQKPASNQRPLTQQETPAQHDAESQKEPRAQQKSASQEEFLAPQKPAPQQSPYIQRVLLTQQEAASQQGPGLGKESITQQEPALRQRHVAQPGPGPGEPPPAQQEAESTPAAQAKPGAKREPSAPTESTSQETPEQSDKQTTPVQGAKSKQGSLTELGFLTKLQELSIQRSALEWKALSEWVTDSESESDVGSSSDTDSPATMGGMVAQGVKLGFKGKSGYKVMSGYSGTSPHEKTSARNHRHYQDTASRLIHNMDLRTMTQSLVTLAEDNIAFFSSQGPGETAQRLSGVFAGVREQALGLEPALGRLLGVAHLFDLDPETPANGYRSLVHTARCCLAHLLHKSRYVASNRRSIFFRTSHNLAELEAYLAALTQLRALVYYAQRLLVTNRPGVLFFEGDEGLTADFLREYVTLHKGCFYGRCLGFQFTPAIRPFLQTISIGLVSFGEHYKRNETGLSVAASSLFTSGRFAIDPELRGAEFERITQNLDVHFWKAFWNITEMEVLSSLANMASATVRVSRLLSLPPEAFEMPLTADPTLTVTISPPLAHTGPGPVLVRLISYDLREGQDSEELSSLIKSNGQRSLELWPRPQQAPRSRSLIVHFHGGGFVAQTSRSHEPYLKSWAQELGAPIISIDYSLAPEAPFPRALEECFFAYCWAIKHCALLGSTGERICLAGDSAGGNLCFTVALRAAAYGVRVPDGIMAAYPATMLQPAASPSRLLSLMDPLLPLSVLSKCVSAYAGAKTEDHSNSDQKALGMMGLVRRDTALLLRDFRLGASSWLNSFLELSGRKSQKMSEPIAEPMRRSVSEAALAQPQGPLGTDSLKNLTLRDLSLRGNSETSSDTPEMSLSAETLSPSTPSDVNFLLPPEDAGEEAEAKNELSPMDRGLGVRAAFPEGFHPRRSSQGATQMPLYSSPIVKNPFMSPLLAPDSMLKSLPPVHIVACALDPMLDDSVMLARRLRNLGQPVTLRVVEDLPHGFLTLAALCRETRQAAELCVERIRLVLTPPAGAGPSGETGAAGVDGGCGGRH
Outline: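 Colorimetric thioester hydrolysis: compounds in DMSO series mixed with DMPT (1.5 mM) in MOPS pH 7.2 with BSA, then baculovirus-expressed His6-tagged full-length human HSL added, 37° C, 20 min. DTNB plus detergents added, 15 min room temperature, absorbance at 405 nm.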

| Compound | IC50 |
| --- | --- |
| CC(=O)c1ccc(N2CCC3(CCN(S(=O)(=O)c4ccccc4Cl)CC3)C2=O)cc1 [Example 151, 2-(4-Acetyl-phenyl)-8-(2-chloro-benzenesulfonyl)-2,8-diaza-spiro[4.5]decan-1-one] | 50 nM |
| O=C1N(c2ccc(C(O)C(F)(F)F)cc2)CCC12CCN(S(=O)(=O)c1ccccc1Cl)CC2 (stereo not shown) [Example 152, 8-(2-Chloro-benzenesulfonyl)-2-[4-(2,2,2-trifluoro-1-hydroxy-ethyl)-phenyl]-2,8-diaza-spiro[4.5]decan-1-one] | 20 nM |
| CC(O)c1ccc(N2CCC3(CCN(S(=O)(=O)c4ccccc4Cl)CC3)C2=O)cc1 (stereo not shown) [Example 153, 8-(2-Chloro-benzenesulfonyl)-2-[4-(1-hydroxy-ethyl)-phenyl]-2,8-diaza-spiro[4.5]decan-1-one] | 100 nM |
| O=C1N(c2cc(C(F)(F)F)ccc2Cl)CCC12CCN(S(=O)(=O)c1ccccc1Cl)CC2 [Example 154, 8-(2-Chloro-benzenesulfonyl)-2-(2-chloro-5-trifluoromethyl-phenyl)-2,8-diaza-spiro[4.5]decan-1-one] | 210 nM |
| CC(O)(c1ccc(N2CCC3(CCN(S(=O)(=O)c4ccccc4Cl)CC3)C2=O)cc1)C(F)(F)F (stereo not shown) [Example 155, 8-(2-Chloro-benzenesulfonyl)-2-[4-(2,2,2-trifluoro-1-hydroxy-1-methyl-ethyl)-phenyl]-2,8-diaza-spiro[4.5]decan-1-one] | 20 nM |
| CCS(=O)(=O)c1ccc(N2CCC3(CCN(S(=O)(=O)c4ccccc4Cl)CC3)C2=O)cc1 [Example 156, 8-(2-Chloro-benzenesulfonyl)-2-(4-ethanesulfonyl-phenyl)-2,8-diaza-spiro[4.5]decan-1-one] | 60 nM |
| O=C1N(c2ccc(C(O)(C(F)(F)F)C(F)(F)F)cc2)CCC12CCN(S(=O)(=O)c1ccccc1Cl)CC2 [Example 157, 8-(2-Chloro-benzenesulfonyl)-2-[4-(2,2,2-trifluoro-1-hydroxy-1-trifluoromethyl-ethyl)-phenyl]-2,8-diaza-spiro[4.5]decan-1-one] | 40 nM |
| O=C1N(c2ccc(C(F)(F)F)cc2)CCCC12CCN(S(=O)(=O)c1ccccc1Cl)CC2 [Example 158, 9-(2-Chloro-benzenesulfonyl)-2-(4-trifluoromethyl-phenyl)-2,9-diaza-spiro[5.5]undecan-1-one] | 120 nM |
| CCOCc1ccc(N2CCCC3(CCN(S(=O)(=O)c4ccccc4Cl)CC3)C2=O)cc1 [Example 159, 9-(2-Chloro-benzenesulfonyl)-2-(4-ethoxymethyl-phenyl)-2,9-diaza-spiro[5.5]undecan-1-one] | 300 nM |
| CC(C)NC(=O)c1ccc(N2CCC3(CCN(S(=O)(=O)c4ccccc4Cl)CC3)C2=O)cc1 [Example 160, 4-[8-(2-Chloro-benzenesulfonyl)-1-oxo-2,8-diaza-spiro[4.5]dec-2-yl]-N-isopropyl-benzamide] | 900 nM |
| CC(C)N(C)C(=O)c1ccc(N2CCC3(CCN(S(=O)(=O)c4ccccc4Cl)CC3)C2=O)cc1 [Example 161, 4-[8-(2-Chloro-benzenesulfonyl)-1-oxo-2,8-diaza-spiro[4.5]dec-2-yl]-N-isopropyl-N-methyl-benzamide] | 380 nM |
| O=C1N(c2ccc(C(O)C(F)(F)F)cc2)CCC12CCN(S(=O)(=O)c1ccccc1OC(F)(F)F)CC2 (stereo not shown) [Example 163, 2-[4-(2,2,2-Trifluoro-1-hydroxy-ethyl)-phenyl]-8-(2-trifluoromethoxy-benzenesulfonyl)-2,8-diaza-spiro[4.5]decan-1-one] | 20 nM |
| Cc1noc(C)c1S(=O)(=O)N1CCC2(CCN(c3ccc(C(F)(F)F)cc3)C2=O)CC1 [Example 164, 8-(3,5-Dimethyl-isoxazole-4-sulfonyl)-2-(4-trifluoromethyl-phenyl)-2,8-diaza-spiro[4.5]decan-1-one] | 280 nM |
| CC(C)(C)CC(=O)N1CCC2(CC1)CCN(c1ccc(C(O)C(F)(F)F)cc1)C2=O (stereo not shown) [Example 165, 8-(3,3-Dimethyl-butyryl)-2-[4-(2,2,2-trifluoro-1-hydroxy-ethyl)-phenyl]-2,8-diaza-spiro[4.5]decan-1-one] | 220 nM |
| O=C1N(c2ccc(C(O)C(F)(F)F)cc2)CCC12CCN(S(=O)(=O)c1ccccc1C(F)(F)F)CC2 (stereo not shown) [Example 166, 2-(4-(2,2,2-trifluoro-1-hydroxyethyl)phenyl)-8-(2-(trifluoromethyl)phenylsulfonyl)-2,8-diazaspiro[4.5]decan-1-one] | 20 nM |
| CC(C)CS(=O)(=O)N1CCC2(CCN(c3ccc(C(O)C(F)(F)F)cc3)C2=O)CC1 (stereo not shown) [Example 167, 8-(isobutylsulfonyl)-2-(4-(2,2,2-trifluoro-1-hydroxyethyl)phenyl)-2,8-diazaspiro[4.5]decan-1-one] | 70 nM |
| CC(C)CS(=O)(=O)N1CCC2(CCN(c3ccc(C(C)(O)C(F)(F)F)cc3)C2=O)CC1 (stereo not shown) [Example 168, 8-(isobutylsulfonyl)-2-(4-(1,1,1-trifluoro-2-hydroxypropan-2-yl)phenyl)-2,8-diazaspiro[4.5]decan-1-one] | 130 nM |
| CC(O)(c1ccc(N2CCC3(CCN(S(=O)(=O)c4ccccc4C(F)(F)F)CC3)C2=O)cc1)C(F)(F)F (stereo not shown) [Example 169, 2-(4-(1,1,1-trifluoro-2-hydroxypropan-2-yl)phenyl)-8-(2-(trifluoromethyl)phenylsulfonyl)-2,8-diazaspiro[4.5]decan-1-one] | 30 nM |
| O=C1N(c2ccc(C(O)C(F)(F)F)cc2)CCC12CCN(S(=O)(=O)C1CC1)CC2 (stereo not shown) [Example 170, 8-(Cyclopropylsulfonyl)-2-(4-(2,2,2-trifluoro-1-hydroxyethyl)phenyl)-2,8-diazaspiro[4.5]decan-1-one] | 320 nM |
| CC(O)(c1ccc(N2CCC3(CCN(S(=O)(=O)C4CC4)CC3)C2=O)cc1)C(F)(F)F (stereo not shown) [Example 171, 8-(Cyclopropylsulfonyl)-2-(4-(1,1,1-trifluoro-2-hydroxypropan-2-yl)phenyl)-2,8-diazaspiro[4.5]decan-1-one] | 550 nM |
| CCS(=O)(=O)c1ccc(N2CCC3(CCN(S(=O)(=O)CC(C)(C)C)CC3)C2=O)cc1 [Example 172, 8-(2,2-Dimethyl-propane-1-sulfonyl)-2-(4-ethanesulfonyl-phenyl)-2,8-diaza-spiro[4.5]decan-1-one] | 770 nM |
| O=C1N(c2ccc(C(O)CF)cc2)CCC12CCN(S(=O)(=O)c1ccccc1C(F)(F)F)CC2 (stereo not shown) [Example 173, 2-(4-(2-fluoro-1-hydroxyethyl)phenyl)-8-(2-(trifluoromethyl)phenylsulfonyl)-2,8-diazaspiro[4.5]decan-1-one] | 140 nM |
| CC(C)(O)c1ccc(N2CCC3(CCN(S(=O)(=O)c4ccccc4C(F)(F)F)CC3)C2=O)cc1 [Example 174, 2-[4-(1-Hydroxy-1-methyl-ethyl)-phenyl]-8-(2-trifluoromethyl-benzenesulfonyl)-2,8-diaza-spiro[4.5]decan-1-one] | 60 nM |
| CC(C)(C)CC(=O)N1CCC2(CC1)CCN(c1ccc(C(O)C(C)(F)F)cc1)C2=O (stereo not shown) [Example 175, 2-(4-(2,2-difluoro-1-hydroxypropyl)phenyl)-8-(3,3-dimethylbutanoyl)-2,8-diazaspiro[4.5]decan-1-one] | 750 nM |
| CC(C)CS(=O)(=O)N1CCC2(CCN(c3ccc(C(O)C(F)F)cc3)C2=O)CC1 (stereo not shown) [Example 177, 2-(4-(2,2-difluoro-1-hydroxyethyl)phenyl)-8-(isobutylsulfonyl)-2,8-diazaspiro[4.5]decan-1-one] | 450 nM |
| CC(C)(C)CC(=O)N1CCC2(CC1)CCN(c1ccc(C(O)C(F)F)cc1)C2=O (stereo not shown) [Example 178, 2-(4-(2,2-difluoro-1-hydroxyethyl)phenyl)-8-(3,3-dimethylbutanoyl)-2,8-diazaspiro[4.5]decan-1-one] | 640 nM |
| O=C1N(c2ccc(C(F)(F)F)cc2)CCC12CCN(S(=O)(=O)c1ccccc1Cl)CC2 [Example 179, 8-(2-Chloro-benzenesulfonyl)-2-(4-trifluoromethyl-phenyl)-2,8-diaza-spiro[4.5]decan-1-one] | 40 nM |
| Cc1nn(C)c(C)c1S(=O)(=O)N1CCC2(CCN(c3ccc(OC(F)(F)F)cc3)C2=O)CC1 [Example 180, 2-(4-Trifluoromethoxy-phenyl)-8-(1,3,5-trimethyl-1H-pyrazole-4-sulfonyl)-2,8-diaza-spiro[4.5]decan-1-one] | 60 nM |
